From patent US20030086952A1, “Highhly concentrated emulsions of organic compounds and methos of use” (priority 2001, published 2003)
Entries after “also recorded” stand apart in the source; their conditions may differ. Marks after values point to notes of the source that are not given here.

Tests used:
Format in all cases: physicochemical
[1] = Production of concentrated Yucca shidegera saponin emulsions in water (content reached); conditions: for Ratio of saponin to emulsified molecule (by mass) / Content (by mass) of molecule in emulsion: Yucca shidegera saponin emulsion in water; for Content (by mass) of molecule in emulsion: mass fraction
Method: (§1) The concentrated emulsions readily re-disperse upon dilution in water to working concentrations of interest. The final concentration of saponin with respect to the organic molecule is easily obtainable at 1:50 or 1:100 w/w, or even less. The shelf life of the concentrated emulsions, either at room temperature (about 25° C.) or at refrigerator temperature (about 4° C.) is at least 1 year, although separation of an emulsion, once stably formed, has not been observed.
mulsions of some aqueous-recalcitrant compounds were prepared in water using Yucca shidegera extracts containing about 12-14% saponin, as an emulsifying agent. The saponin preparations were obtained from Danco Natural Products, Pine Valley, Calif., and are sold under the trade names Pure Yucca (about 7-14% saponin and Yucca Ultra (about 10-11% saponin). These preparations had been filtered by the supplier to remove any fibers which could interfere with the emulsification process. The components were combined as follows, using D-limonene as an example.
(§2) D-limonene (B. F. Goodrich/Kalama Chemicals, Kalama, Wash.) in the amount of 50 grams was added directly to a clean glass container. To this, 1.6 grams of yucca saponin was added. The glass container was covered tightly and agitated vigorously. A poor, partially opaque solution resulted. […] 18.4 grams water was then added such that the total weight of the three components was 70 grams. The mixture was agitated again vigorously in a capped container. A viscous, white and truly opaque emulsion resulted. […] To this, another 30 grams limonene was added while mixing to form 100 g final emulsion. The final concentration of D-limonene in the emulsion was 80% by weight. An additional 10 grams of D-limonene can be to bring the final concentration to 90% by weight.
Likewise, other organic compounds can be emulsified by combining about 50 grams of the organic compound with the fraction of saponin indicated in Table 1 and water in a sufficient amount to produce an emulsion upon mixing of the three components. Following formation of the emulsion, the amount of organic compound can be increased as desired.

[2] = Stability of the saponin emulsions (stable emulsion formed, phase separation, recrystallizing, shelf life); conditions: for formation of a stable emulsion: with yucca saponin and water
Method: as §2, with “vigorously.” for “vigorously. A poor, partially opaque solution resulted.”, “container.” for “container. A viscous, white and truly opaque emulsion resulted.”
(§3) It is worth noting that vanillin is a solid at room termperature. The vanillin emulsion was prepared by first heating vanillin to at least 81° C. in order to melt it, then adding the other components.

[3] = Re-dilution of the concentrated emulsions in water; conditions: concentrated emulsion diluted in water
Method: as §1
Furthermore, no two of the three components were able to form an emulsion on their own under the stated conditions. Emulsions were only possible with all three components.
as §3

| Compound | Ratio of saponin to emulsified molecule (by mass) [1] | Content (by mass) of molecule in emulsion [1] | formation of a stable emulsion [2] | further results |
| --- | --- | --- | --- | --- |
| O=CC=Cc1ccccc1 [cinnamaldehyde] | 1/50 | .899 | – | – |
| C=C(C)[C@H]1CC=C(C)CC1 [d-limonene, D-limonene] | 1/78 | .909 | stable emulsion | concentration of organic compound in the emulsion ([1]; stable saponin emulsion in water, two step mixing): 80 % by weight; phase separation of emulsion ([2]; ambient temperature, 50:12:1 D-limonene:water:saponin): will not undergo phase separation for up to two weeks; dilution of emulsion in water [3]: readily diluted up to eighty-fold |
| CC/C=C\CC1C(=O)CCC1CC(=O)OC (stereo not drawn) [methyl jasmonate] | – | – | did not form stable emulsions | – |
| O=C(OCc1ccccc1)c1ccccc1 [benzyl benzoate] | 1/55 | .534 | – | – |
| COc1cc(/C=C/C=O)cc(OC)c1O [sinapaldehyde] | – | – | did not form stable emulsions; also recorded: stable emulsions were not obtained | – |
| C=C(C)C1CC=C(C)CC1 (single isomer, unassigned; (+)) [(+) limonene] | 1/18* | .690 | – | – |
| COc1cc(C=O)ccc1O [vanillin] | 1/34 | .566 | – | stability of emulsion without recrystallizing ([2]; room temperature, prepared from melt (>81° C.)): stable at room temperature without recrystallizing |
| cedryl acetate | 1/196 | .794 | – | – |
| C=CCc1ccc(O)c(OC)c1 [eugenol] | – | – | did not form stable emulsions; also recorded: stable emulsions were not obtained | – |
| COc1cc(/C=C/C=O)ccc1O [coniferaldehyde] | – | – | did not form stable emulsions; also recorded: stable emulsions were not obtained | – |
